Assay results reported in publication PMC11219871, “Epigenetic-based differentiation therapy for Acute Myeloid Leukemia” (Nature Communications, 2024).

Assays:
[1] = system: HL-60; assay: Cell proliferation assay: GI50; format: cell-based, human; conditions: 48 h; read-out: HL-60 GI50
Method: Cell proliferation was analyzed using the CellTiter 96 Aqueous One Solution Cell Proliferation Assay (Promega, Madison, WI). This is a colorimetric method for determining the number of viable cells in proliferation. For the assay, suspension cells were cultured in triplicate at a density of 1 × 10^6 cells/mL in 96-well plates (100.000 cells/well, 100 µL/well), using only the 60 inner wells to avoid any border effects. […] Then, the cells were incubated with 100 μL/well of medium and 20 μL/well of CellTiter 96 Aqueous One Solution reagent for 1–3 h. […] The background absorbance was measured in wells with only cell line medium and solution reagent. First, the average of the absorbance from the control wells was subtracted from all other absorbance values. Data were calculated as the percentage of total absorbance of treated cells/absorbance of non-treated cells. The GI50 values of the different compounds were determined using non-linear regression plots made with GraphPad Prism v5 software.

[2] = system: HL-60; assay: Differentiation-apoptosis assay, CD11b / annexin-V / Sytox Green / myeloid markers flow cytometry; format: cell-based, human; conditions: HL-60, daily 25% GI50, 48 h; for Annexin V + (%) / CD11b+ (%): mean of three
Method: Next, the cells were washed twice with phosphate-buffered saline (PBS) and resuspended in 1X Binding Buffer at a concentration of 1 × 10^6 cells/mL. […] Finally, after the addition of 400 µL of 1X Binding Buffer to each tube, samples were collected on a BD FACSCanto flow cytometer (Becton Dickinson, San Jose, CA, USA) and analyzed using FlowJo software.
Then, 1 million cells (volume of 250 µL) were added and incubated for 30 min at room temperature in darkness. After 10 min incubation at room temperature with 2 mL of FACSLysing 1X, cells were centrifuged at 540 g for 5 min and washed twice with FACSBuffer. Finally, after centrifugation at 540 g for 5 min cells were resuspended in FACSBuffer.

[3] = biological target: HDAC1 (Homo sapiens, UniProt Q13547); assay: HDAC enzymatic assay, fluorescence-labeled substrate; format: biochemical; conditions: read-out: HDAC1 IC50
Sequence of HDAC1 (Q13547 whole entry): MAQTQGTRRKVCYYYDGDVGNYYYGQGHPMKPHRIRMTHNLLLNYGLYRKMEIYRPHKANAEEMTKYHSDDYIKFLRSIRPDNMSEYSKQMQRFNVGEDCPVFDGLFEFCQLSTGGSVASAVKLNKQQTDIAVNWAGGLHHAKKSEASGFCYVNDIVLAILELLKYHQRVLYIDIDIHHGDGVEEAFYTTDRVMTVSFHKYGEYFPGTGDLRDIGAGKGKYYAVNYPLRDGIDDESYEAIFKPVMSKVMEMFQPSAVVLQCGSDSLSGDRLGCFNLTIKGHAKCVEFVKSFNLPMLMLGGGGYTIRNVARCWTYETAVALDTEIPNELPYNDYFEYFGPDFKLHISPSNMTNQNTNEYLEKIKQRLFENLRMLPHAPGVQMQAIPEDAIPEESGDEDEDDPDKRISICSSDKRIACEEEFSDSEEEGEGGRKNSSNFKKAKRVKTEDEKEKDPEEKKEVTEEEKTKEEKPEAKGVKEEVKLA

[4] = biological target: T1, HDAC6 (Homo sapiens, UniProt Q9UBN7); assay: as above; format: biochemical; conditions: read-out: HDAC6 IC50
T1 sequence (Q9UBN7 1-1215): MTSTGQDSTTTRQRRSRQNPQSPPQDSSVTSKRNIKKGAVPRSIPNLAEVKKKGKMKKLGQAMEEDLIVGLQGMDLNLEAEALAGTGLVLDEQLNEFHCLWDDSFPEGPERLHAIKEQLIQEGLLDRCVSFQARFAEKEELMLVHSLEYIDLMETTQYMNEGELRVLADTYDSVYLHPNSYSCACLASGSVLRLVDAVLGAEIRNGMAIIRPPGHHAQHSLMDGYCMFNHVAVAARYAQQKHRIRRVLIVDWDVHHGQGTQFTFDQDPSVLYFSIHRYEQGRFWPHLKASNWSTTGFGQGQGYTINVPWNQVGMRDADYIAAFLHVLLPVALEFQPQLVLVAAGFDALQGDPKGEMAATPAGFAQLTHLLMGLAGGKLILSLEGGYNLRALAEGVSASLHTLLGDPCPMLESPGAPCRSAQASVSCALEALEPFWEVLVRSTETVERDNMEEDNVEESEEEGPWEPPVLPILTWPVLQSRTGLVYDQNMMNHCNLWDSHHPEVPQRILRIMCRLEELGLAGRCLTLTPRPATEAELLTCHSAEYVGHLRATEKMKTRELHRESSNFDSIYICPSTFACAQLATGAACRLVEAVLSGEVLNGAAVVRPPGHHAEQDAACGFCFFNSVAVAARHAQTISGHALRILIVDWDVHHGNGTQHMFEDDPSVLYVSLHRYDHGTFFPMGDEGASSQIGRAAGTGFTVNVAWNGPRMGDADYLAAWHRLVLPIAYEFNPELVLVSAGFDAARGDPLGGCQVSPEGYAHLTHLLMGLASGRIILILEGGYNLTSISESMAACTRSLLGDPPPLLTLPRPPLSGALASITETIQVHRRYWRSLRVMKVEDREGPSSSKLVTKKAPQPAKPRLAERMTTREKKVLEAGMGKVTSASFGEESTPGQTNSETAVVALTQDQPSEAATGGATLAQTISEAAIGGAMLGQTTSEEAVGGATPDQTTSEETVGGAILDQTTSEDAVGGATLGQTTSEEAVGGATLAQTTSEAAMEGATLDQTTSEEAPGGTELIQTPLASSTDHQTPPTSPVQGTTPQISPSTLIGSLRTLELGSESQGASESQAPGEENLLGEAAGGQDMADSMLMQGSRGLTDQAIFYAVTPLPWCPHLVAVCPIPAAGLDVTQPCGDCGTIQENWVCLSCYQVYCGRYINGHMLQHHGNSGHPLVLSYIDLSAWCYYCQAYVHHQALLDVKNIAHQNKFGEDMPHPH

SMILES	GI50 [1]	Annexin V (%) Replicate 1 [2]	Annexin V (%) Replicate 2 [2]	Annexin V (%) Replicate 3 [2]	CD11b (%) Replicate 1 [2]	CD11b (%) Replicate 2 [2]	CD11b (%) Replicate 3 [2]	Annexin V + (%) [2]	CD11b+ (%) [2]	IC50 [3]	IC50 [4]
COc1cc2c(NCC3CCN(C)CC3)cc(-c3ccc(C)o3)nc2cc1OCCCN1CCCC1 [CM-579]	> 10 µM	0.00%	0.00%	0.00%	0.00%	0.00%	0.00%	0.00%	0.00%	> 20 µM	> 20 µM
COc1cc2c(NC3CCN(C)CC3)cc(-c3ccc(C)o3)nc2cc1OCCCN1CCCC1 [CM-272]	2.9 µM	1.02%	1.64%	1.88%	1.50%	0.87%	0.44%	1.51%	0.94%	> 20 µM	> 20 µM
